Laboratory results published in patent publication US7745450B2, “Pyrazolo[4,3-d]pyrimidines, processes for their preparation and methods for therapy” (Institute of Experimental Botany, priority 2002, dated 2010).
Like-named read-outs stand apart in the source and are kept apart here.

Tests used:
MMK1 protein kinase = MMK1 protein kinase (Vicia faba, UniProt A0AAV1B7B8); experiment: MMK1 protein kinase activity; type: biochemical
Description: Protein extraction and purification of pant CDK by binding to p13^suc1-beads or immunopurification with an antibody specific to the cdc2a-MS protein was carried out as described previously (Bögre et al. 1997, Plant Physiol. 113, 1997, 841-852). The MMK1 protein kinase was purified with a specific antibody from Vicia faba extracts as described by Bögre et al. 1997a, Plant Cell 9, 75-83). Protein kinase activity was measures as described above in Example 20. The quantification of radioactivity incorporated into histone H1 or myelin basic protein was undertaken using phosphoimager (FIG. 2).

B16 = experiment: In vitro cytotoxic activity, Calcein AM; type: cell-based; settings: Mus musculus, B16, 72 h, three days
[1] = system: CEM (human lymphoblastoid leukemia); experiment: In vitro cytotoxic activity, Calcein AM; type: cell-based; settings: Homo sapiens, 72 h, three days
Outline: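 CEM cells were seeded at 10^4/well in DMEM + 10% FBS and exposed to six concentrations from 200 to 0.2 μM, in triplicate, for 3 days at 37 °C and 5% CO2. Viable cells were then measured by Calcein AM fluorescence after 1 h loading.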

normal human lymphocytes = experiment: Immunosuppressive activity, 3H-thymidine incorporation in concanavalin A activated lymphocytes; type: cell-based; settings: Lymphocyte, 72 hours, [3H]-TdR, read-out: Human lymphocytes ED50
Description: Human heparinized peripheral blood was obtained from healthy volunteers by cubital vein punction. The blood was diluted in PBS (1:3) and mononuclear cells were separated by centrifugation in Ficoll-Hypaque density gradient (Pharmacia, 1.077 g/ml) at 2200 rpm for 30 minutes. Following centrifugation, lymphocytes were washed in PBS and resuspended in cell culture medium (RMPI 1640, 2 mM glutamine, 100 U/ml penicillin, 100 μg/ml streptomycin, 10% fetal calf serum and sodium bicarbonate).
The cells were diluted at target density of 1.100.000 cells/ml were added by pipette (180 μl) into 96/well microtiter plates. Four-fold dilutions of the intended test concentration were added at time zero in 20 μl aliquots to the microtiter plate wells. Usually, test compound was evaluated at six 4-fold dilutions. In routine testing, the highest well concentration was 266.7 μM. All drug concentrations were examined in duplicates. All wells with exception of unstimulated controls were activated with 50 μl of concanavalin A (25 μg/ml). Incubations of cells with test compounds lasted for 72 hours at 37° C., in 5% CO2 atmosphere and 100% humidity. At the end of incubation period, the cells were assayed by using the [^3H]-TdR:
Cell cultures were incubated with 0.5 μCi (20 μl of stock solution […]) per well for 6 hours at 37° C. and 5% CO2. The automated cell harvester was used to lyse cells in water and adsorb the DNA onto glass-fiber filters in the format of microtiter plate. The DNA incorporated [^3H]-TdR was retained on the filter while unincorporated material passes through. The filters were dried at room temperature overnight, sealed into a sample bag with 10-12 ml of scintillant. The amount of [^3H]-TdR present in each filter (in cpm) was determined by scintillation counting in a Betaplate liquid scintillation counter. The effective dose of immunosuppressant (ED) was calculated using the following equation: ED=(CCPMdrug exposed well/mean CCPMcontrol wells)×100%.

[2] = system: human diploid fibroblasts (HCA cells); experiment: Inhibition of senescence, β-galactosidase staining of fibroblasts; type: cell-based; settings: for SENESCENT CELLS (%) HCA25: HCA cells passage 25, β-galactosidase staining; for SENESCENT CELLS (%) HCA45: HCA cells passage 45, β-galactosidase staining; for SENESCENT CELLS (%) HCA80: HCA cells passage 80, β-galactosidase staining
Description: In this example, human diploid fibroblasts (HCA cells of various passage levels: passage 25—designated HCA25; passage 45—designated HCA45; passage 80—designated HCA80) were stained for β-galactosidase activity. The medium present on cultured cells was removed, the cells were washed twice in […], and fixed in 2-3 ml of fixing solution comprised of a 2% formaldehyde and 0.2% glutaraldehyde in PBS. The cells were incubated at room temperature for 5 minutes, then washed twice with PBS. The cells were then incubated at 37° C. […] In this experiment, senescent cells, but not other cells were stained blue due to the action of β-galactosidase on the substrate (FIG. 9).

[3] = system: myeloid leukemia KG1 cell line; experiment: Cell proliferation of KG1, flow cytometric cell count; type: cell-based, human; settings: 96 hours; for IC50: read-out: KG1 IC50
Description: (§1) Cell lines: Human leukemic cell lines were obtained from the American Type Culture Collection (ATCC, Rockville, Md., USA). They were cultured in Iscove's Modified Dulbecco's Medium (IMDM) supplemented with 10% heat inactivated fetal calf serum (FCS), 200 U/ml penicillin, 200 μg/ml streptomycin and 1 μg/ml amphotericin B. Cells were cultured in a 5% CO2-95% air fully humidified incubator. For effects on clonogenic output, 1000 cells/well were plated in duplicate in methylcellulose (0.9%), supplemented with 20% FCS for 14 days.
(§2) Cells were plated at 10000 per well in 200 μl IMDM medium and incubated with 0-50 μM of the novel compounds (Tab 8), by addition of drug directly to the culture medium and incubated at 37° C. for 96 hours (Tab 8). Absolute cell number was determined by addition of a known concentration Fluoresbrite microspheres (FITC) (Polysciences, Inc.). The absolute number of cells/well was calculated as: {(total number of beads added/well)/(number of beads measured)×(number of measured cells in the gate of interest)}. All analyses were performed with a FACScan (BD), using CELLQuest software (Becton Dickinson).
(§3) Response of the myeloid leukemia KG1 and T-lymphocyte leukemia Molt3 cell lines to the cytostatic effect of the novel compounds was determined using the above-mentioned standardized bead suspension that was used to determine the absolute cell number by flow cytometric (FCM) measurement. Cells were grown in the presence of increasing concentration of the novel compounds.
To determine reversibility of the effects of the novel compounds, cells were plated at 10000 per well and exposed to 0-50 μM of the compounds for the time indicated, followed by washing in phosphate-buffered saline (PBS) (Life Technologies) and reseeded into drug-free medium for 7 additional days. An identical set of cells was plated and exposed to the drugs for 7 additional days. After 7 days (168 hours), the relative cell number was assayed by flow cytometry.

[4] = system: T-lymphocyte leukemia Molt3 cell line; experiment: Cell proliferation of Molt3, flow cytometric cell count; type: cell-based, human; settings: 96 hours
Description: as §1, §2, §3

cdk1/cyclin B (CDC2) = cdk1/cyclin B (CDC2) (Homo sapiens, UniProt P06493); experiment: CDK inhibition assay, cdk1/cyclin B (CDC2) kinase, histone phosphorylation; type: biochemical
Chain of cdk1/cyclin B (CDC2) (P06493 whole entry, species assumed): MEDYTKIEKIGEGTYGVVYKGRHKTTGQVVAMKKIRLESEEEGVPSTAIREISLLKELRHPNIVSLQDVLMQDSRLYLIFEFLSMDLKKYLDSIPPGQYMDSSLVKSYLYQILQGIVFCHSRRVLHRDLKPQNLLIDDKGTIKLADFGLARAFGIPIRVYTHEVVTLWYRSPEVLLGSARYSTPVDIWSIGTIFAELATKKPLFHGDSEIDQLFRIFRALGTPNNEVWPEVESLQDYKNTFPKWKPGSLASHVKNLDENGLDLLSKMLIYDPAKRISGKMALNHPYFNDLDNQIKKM
Chain of cdk1/cyclin B (CDC2) (P14635 whole entry partner, species assumed): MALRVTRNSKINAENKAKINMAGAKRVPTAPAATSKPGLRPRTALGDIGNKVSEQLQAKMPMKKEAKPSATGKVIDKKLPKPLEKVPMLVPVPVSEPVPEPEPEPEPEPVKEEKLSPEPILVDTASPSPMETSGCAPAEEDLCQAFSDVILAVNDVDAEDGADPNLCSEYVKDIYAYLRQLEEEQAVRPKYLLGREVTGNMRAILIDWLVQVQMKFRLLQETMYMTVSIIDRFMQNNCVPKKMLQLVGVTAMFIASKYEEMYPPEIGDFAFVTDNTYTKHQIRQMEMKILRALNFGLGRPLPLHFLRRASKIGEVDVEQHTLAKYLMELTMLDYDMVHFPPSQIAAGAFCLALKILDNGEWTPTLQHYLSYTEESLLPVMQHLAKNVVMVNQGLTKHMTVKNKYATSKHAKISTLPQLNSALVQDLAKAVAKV
Outline: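 Human cdk1/cyclin B activity measured with 1 mg/ml histone substrate, 15 μM ATP plus [γ-32P]ATP, in HEPES pH 7.4 buffer with 10 mM MgCl2. Phosphorylation quantified by phosphorimaging; activity expressed as % of maximum, IC50 from dose-response curves by graphic analysis.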

[5] = system: PHA-stimulated lymphocytes (PBMC); experiment: Proliferation of PHA-stimulated lymphocytes (PBMC), flow cytometric cell count; type: cell-based, human; settings: 96 hours, IL-2
Description: Peripheral blood mononuclear cells (PBMC): Human peripheral blood mononuclear cells were isolated by density gradient (Ficoll-Hypaque) (LSM, ICN Biomedicals Inc.). PBMC were stimulated with 5 μg/ml phytohemaglutinin A (PHA) (Sigma) during 24-48 hours in IMDM supplemented with 10% FCS at 37° C. After washing off the PHA, PBMC were incubated with interleukin-2 (IL-2) (10 U/ml) (Genzyme).
as §2
PHA-stimulated lymphocytes (PBMC) were tested for their cytotoxicity as one of the normal counterparts of the cell lines. Cells were grown for 96 hours in the presence of IL-2 and different concentrations of the novel compounds and cell number was counted on the flow cytometer.

Chain of MMK1 protein kinase (A0AAV1B7B8 1-394): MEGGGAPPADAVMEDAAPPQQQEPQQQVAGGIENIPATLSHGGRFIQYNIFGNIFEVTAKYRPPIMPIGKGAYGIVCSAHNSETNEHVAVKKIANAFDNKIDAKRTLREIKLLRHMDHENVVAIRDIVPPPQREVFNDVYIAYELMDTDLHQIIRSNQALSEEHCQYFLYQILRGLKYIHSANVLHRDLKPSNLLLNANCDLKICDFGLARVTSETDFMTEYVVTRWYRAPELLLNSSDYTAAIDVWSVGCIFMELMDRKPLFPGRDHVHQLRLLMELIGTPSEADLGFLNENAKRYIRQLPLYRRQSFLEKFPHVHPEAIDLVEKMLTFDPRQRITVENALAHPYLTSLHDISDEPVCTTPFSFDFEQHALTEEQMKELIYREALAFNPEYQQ

Molecule | IC50 (MMK1 protein kinase) | GI50 (B16) | GI50 [1] | EC50 (normal human lymphocytes) | SENESCENT CELLS (%) HCA25 [2] | SENESCENT CELLS (%) HCA45 [2] | SENESCENT CELLS (%) HCA80 [2] | also measured
CC(C)c1n[nH]c2c(NCc3ccccc3)nc(NC3CCCCC3N)nc12 (centres unmarked) | 0.02 µM | 28 µM | 14 µM | 0.8 µM | – | – | – | –
CC(C)c1n[nH]c2c(NCc3ccccc3)nc(NCCN)nc12 | 1.2 µM | 42 µM | 26 µM | 11.5 µM | – | – | – | –
CC(C)c1n[nH]c2c(Nc3cccc(Cl)c3)nc(NCCO)nc12 | 0.28 µM | 29 µM | 18 µM | 17 µM | 4% | 4% | 38% | –
Cc1n[nH]c2c(NCc3ccccc3)nc(NCCO)nc12 | 29.3 µM | 47 µM | 45 µM | 34 µM | – | – | – | –
Cc1n[nH]c2c(NCc3ccccc3)nc(NCCCO)nc12 | 5.8 µM | 41 µM | 40 µM | 28 µM | – | – | – | –
CC(C)c1n[nH]c2c(Nc3cccc(Cl)c3)nc(NC3CCC(N)CC3)nc12 (centres unmarked) | 0.012 µM | 1.3 µM | 0.5 µM | 0.5 µM | 4% | 5% | 35% | –
CC(C)c1n[nH]c2c(NCc3ccccc3)nc(NC3CCC(N)CC3)nc12 (centres unmarked) | 0.02 µM | 2.3 µM | 1.5 µM | 1.1 µM | – | – | – | –
CC(C)c1n[nH]c2c(NCc3ccccc3)nc(N(CCO)CCO)nc12 | 1.1 µM | 38 µM | 25 µM | 16 µM | – | – | – | –
Cc1n[nH]c2c(NCc3ccccc3)nc(N(CCO)CCO)nc12 | 8.1 µM | 40 µM | 35 µM | 25 µM | – | – | – | –
CN(Cc1ccc(O)c(O)c1)c1ncnc2cn[nH]c12 | – | – | – | – | 4% | 4% | 22% | –
CC[C@H](CO)Nc1nc(NCc2ccccc2)c2n[nH]c(C(C)C)c2n1 | 0.03 µM | 3.2 µM | 2.4 µM | 4.5 µM | – | – | – | –
5-(2-hydroxyethylthio)-671-phenyl-2-hydroxyethylamino-3-isopropylpyrazolo[4,3-d]pyrimidine [Compound 96] | – | – | – | – | – | – | – | Effectiveness on KG1 compared with normal PBMC [3]: significantly more effective on KG1 than on normal PBMC; IC50 [3]: 9 ± 0.4 µM; IC50 [4]: 10 ± 1.2 µM; IC50 (cdk1/cyclin B (CDC2); cell free system (Table 8)): 5.8 µM; IC50 [5]: 8 ± 0.5 µM
5-(3-hydroxypropylamino)-7-[N-(3,4-dihydroxybenzyl-N-methyl]amino-isopropylpyrazolo[4,3-d]pyrimidine [Compound 42] | – | – | – | – | – | – | – | IC50 [3]: 10.7 ± 0.3 µM; IC50 [4]: 13 ± 2.1 µM; IC50 (cdk1/cyclin B (CDC2); cell free system (Table 8)): 2.6 µM; IC50 [5]: 5.9 ± 2.9 µM
5-(3-hydroxypropylamino)-7[N-(3,4-dihydroxybenzyl-N-methyl]amino-3-isopropylpyrazolo[4,3-d]pyrimidine [Compound 50] | – | – | – | – | – | – | – | IC50 [3]: 21 µM; IC50 [4]: 21 µM; IC50 [5]: 15 ± 7.3 µM
5-(5-cyanopentyl)-7-[(R,S)-(1-phenyl-2-hydroxyethyl)amino]-9-isopropylpurine [Compound 123] | – | – | – | – | – | – | – | IC50 [3]: 42 ± 4.8 µM; IC50 [4]: 42.5 ± 6 µM; IC50 (cdk1/cyclin B (CDC2); cell free system (Table 8)): 33 µM; IC50 [5]: 33 ± 4.4 µM
5-(hexylamino)-7-[N-(3,4-dihydroxybenzyl-N-methyl]amino-isopropylpyrazolo[4,3-d]pyrimidine [Compound 41] | – | – | – | – | – | – | – | IC50 [3]: 15.3 ± 2.4 µM; IC50 [4]: 14 ± 3.2 µM; IC50 (cdk1/cyclin B (CDC2); cell free system (Table 8)): 1 µM; IC50 [5]: 10 ± 2 µM
Cc1n[nH]c2c(NCc3ccccc3)nc(NCCN)nc12 [2-aminoethylamino / benzylamino / methyl] | 15 µM | 41 µM | 35 µM | 14.7 µM | – | – | – | –
CC(C)c1n[nH]c2c(NCc3ccccc3)nc(NCCCO)nc12 [Compound 7, 5-(3-hydroxypropylamino)-7-benzylamino-3-isopropylpyrazolo[4,3-d]pyrimidine] | – | – | – | – | – | – | – | IC50 ([3]; Homo sapiens, KG-1): 25 ± 4.4 µM; IC50 ([4]; Homo sapiens, MOLT-3): 24 ± 2.2 µM; IC50 (cdk1/cyclin B (CDC2)): 0.2 µM; IC50 (cdk1/cyclin B (CDC2); cell free system (Table 8)): 1 µM; IC50 ([5]; Homo sapiens, Lymphocyte): 9 ± 0.2 µM
CCC(CO)Nc1nc(NCc2ccc(O)c(O)c2)c2ncn(C(C)C)c2n1 (centres unmarked) [Compound 243, 2-(1-ethyl-2-hydroxyethylamino)-6(3,4-dihydroxybenzylamino)-9-isopropylpurine] | – | – | – | – | – | – | – | IC50 ([4]; Homo sapiens, MOLT-3): 9 ± 1.2 µM; IC50 ([5]; Homo sapiens, Lymphocyte): 9 ± 6.6 µM
Nc1c(Cl)ccc(CNc2ncnc3cn[nH]c23)c1N [H / 2,3-diamino-4-chlorobenzylamine / H] | – | – | – | – | 3% | 3% | 18% | –
CC(=O)c1ccccc1CNc1ncnc2cn[nH]c12 [H / 2-acetylbenzylamino / H] | – | – | – | – | 3% | 5% | 28% | –
Nc1cc(CNc2ncnc3cn[nH]c23)ccc1Cl [H / 3-amino-4-chlorobenzylamine / H] | – | – | – | – | 4% | 5% | 21% | –
Clc1ccc(Nc2ncnc3cn[nH]c23)cc1 [H / 4-chloroanilino / H] | – | – | – | – | 3% | 6% | 27% | –
